According to patent US20130023491A1, “BETA-CELL REPLICATION PROMOTING COMPOUNDS AND METHODS OF THEIR USE” (President and Fellows of Harvard College, priority 2009, published 2013):
Where two headings read alike, the source gives them in different places.

System: β-cells (dispersed rat islet cells)
Assay: primary islet β-cell replication assay (PDX-1/ki-67 co-staining, automated imaging)
Format: cell-based
Procedure: Rat islets were isolated as previously described in Gotoh M, Maki T, Kiyoizumi T, Satomi S, Monaco A P: An improved method for isolation of mouse pancreatic islets. Transplantation 40:437-438, 1985, contents of which are herein incorporated by reference in their entirety. Isolated islets were cultured overnight in a tissue culture incubator. The following morning, islets were trypsinized into cellular clusters of 1-3 cells, re-suspended in islet media (Mediatech 99-786-CV; 10% FBS serum (Valley Biomedial BS3033); 8.3 mM Glucose (Sigma G7528); 1× Penicillin/Streptomycin (Invitrogen 15070-063); 1× Glutamax (Invitrogen 35050-079)) and plated into the wells of a 96-well plate (Sigma CLS3904) that had been coated with 804G (a rat bladder carcinoma cell line) conditioned media. The cellular plating density was 60 k cells/well and greater than 95% viability was confirmed at the time of plating. […] For screening, compounds were tested at 1 uM concentration in duplicate. After 24-hours of compound treatment, cells were fixed with fresh 4% PFA (Electron Microscopy Services 15710) for 20 minutes and washed with PBS (VWR 45000-446). Antigen retrieval was performed by heating the cells to 90 degrees Celsius in 0.1 mM EDTA (Ambion AM9260G) in PBS. Cells were then washed and permeabalized with PBS/0.3% Triton X-100 (J.T.Baker X198-07) for 15 minutes. Immunocytochemical staining was then performed as follows. Antigen blocking was performed with 5% normal donkey serum (Jackson ImmunoResearch 017-000-121) in PBS for an hour. Staining was performed by overnight incubation with primary antibody at 4 degrees Celsius. For the primary screen, PDX-1 antibody (R&D AF2419) was used to reveal beta-cells and ki-67 antibody (BD Bioscience 556003) to visualize proliferating cells. Without wishing to be bound by theory, the failure of prior beta-cell replication screens is primarily a consequence of using a cytoplasmic marker (Insulin) as the β-cell identifier. The use of a cytoplasmic marker prevents accurate attribution of nuclear replication to a specific cell identity i.e., in dense culture it is impossible to attribute a cytoplasm to a specific nucleus given the proximity to multiple nuclei. Additional Immunohistochemistry antibodies included Phosphohistone 3 (Millipore 06-570), Insulin (Dako A0564), Glucagon (Millipore 4031-01F) and Vimentin (Millipore ab5733). For western blotting anti-bodies included ADK (Abcam ab38010, ab64825) and RAN (BD Bioscience 610340) as a loading control.
Once compound-treated islet cells were stained, β-cell replication was assessed via automated image acquisition and analysis using a Cellomics ArrayScanVTI. The acquisition thresholds/parameters were established such that the computer-based calls of replication events were consistent with human-based calls. The parameters used were directed at the identification of (1) PDX-1+ cells and (2) ki-67 positive staining within the PDX-1 positive area. The algorithm was a three step process. First the nuclear area was predicted by the software based upon the expected PDX-1 staining pattern. Second PDX-1 positive cells (selected objects) were counted based upon the average staining intensity within the predicted nuclear area (Note: total signal intensity was essentially equal in quality but was not typically used). Third, the number of PDX-1 positive cells (selected objects) that simultaneously were Ki-67 positive was determined by determining the average fluorescence intensity of ki-67 staining within the predicted nuclear area (again, total intensity was also occasionally used with equal efficacy). The specific thresholds (fluorescence intensities) varied from experiment to experiment. In general, the basal replication rate was set at roughly 1% i.e., the algorithm was varied until 1% of DMSO treated PDX+ cells were reported to be double positive for PDX-1 and ki67. […]

Nc1ncnc2c1c(I)cn2[C@@H]1O[C@H](CO)[C@@H](O)[C@H]1O [A10, 5-iodotubercidin]
induction of β-cell replication in the screening assay (1 uM, 24 hours): 2.3 fold
induction of the replication rate above the base-line rate, combination with high glucose (5-IT 2 μM plus high glucose): 5 fold
β-cell replication effect of addition of 5-IT to the GLP-1R agonists (24 h, 5-IT 2 μM plus GLP-1 or Ex-4): ~4 fold
increase of β-cell replication (24 h, 5-IT 2 μM, GLP-1 and Ex-4 20 nM and 4 nM, normalized to DMSO): ~2.5 fold
effect of glucose concentration on % beta-cell replication in treated samples (A10 2 μM, 0-25 mM glucose): little effect
% Ki-67 positive cells versus serum concentration (A10 2 μM, 0.2%, 2.0% or 20% serum): increased with increasing serum concentration
% of Ki-67 positive β-cells (PDX-1 and Ki-67 positive cells), dose curve (A10 0.019-10 uM, B8 0.23-30 uM): increase in a dose dependent manner
EC50 (FIG. 13c dose-response curves, read-out: EC50, β-cell proliferation in rat islet cultures): 4700 nM
EC50 (dose curves FIG. 2a (A10) and FIG. 3 (B8), Ki-67 positive β-cells, read-out: EC50 for β-cell proliferation): 470 nM
